What follows are molecules tested against GABAA receptor (assay: Steroid inhibition of [35S]-TBPS binding). Conditions: rat brain cortical membranes, 3 nM [35S]-TBPS, in the presence of 5 mM GABA.
Description: Steroid Inhibition of TBPS Binding
Briefly, cortices are rapidly removed following decapitation of carbon dioxide-anesthetized Sprague-Dawley rats ([…]). The cortices are homogenized in 10 volumes of ice-cold 0.32 M sucrose using a glass/teflon homogenizer and centrifuged at 1500×g for 10 min at 4° C. The resultant supernatants are centrifuged at 10,000×g for 20 min at 4° C. to obtain the P2 pellets. The P2 pellets are resuspended in 200 mM NaCl/50 mM Na—K phosphate pH 7.4 buffer and centrifuged at 10,000×g for 10 min at 4° C. This washing procedure is repeated twice and the pellets are resuspended in 10 volumes of buffer. Aliquots ([…]) of the membrane suspensions are incubated with 3 nM [^35S]-TBPS and […] aliquots of test drug dissolved in dimethyl sulfoxide (DMSO) (final 0.5%) in the presence of 5 mM GABA. The incubation is brought to a final volume of 1.0 mL with buffer. […] Following a 90 min incubation at room temp, the assays are terminated by filtration through glass fiber filters (Schleicher and Schuell No. 32) using a cell harvester (Brandel) and rinsed three times with ice-cold buffer. Filter bound radioactivity is measured by liquid scintillation spectrometry. Non-linear curve fitting of the overall data for each drug averaged for each concentration is done using Prism (GraphPad).
Various compounds are or can be screened to determine their potential as modulators of [^35S]-TBPS binding in vitro. These assays are or can be performed in accordance with the above discussed procedures.
With C[C@@]1(O)CC[C@@]2(C)[C@@H](CC[C@@H]3[C@@H]2CC[C@]2(C)[C@@H](Nc4ccccc4F)CC[C@@H]32)C1 [Compound 91] the IC50 was > 500 nM.
C[C@@]1(O)CC[C@H]2[C@H](CC[C@@H]3[C@@H]2CC[C@]2(C)[C@@H](C(=O)N4CC[C@H](c5ccccc5)C4)CC[C@@H]32)C1 [Compound 31] was tested, and the IC50 was 50 to 100 nM.
With CN(CC(=O)[C@H]1CC[C@H]2[C@@H]3CC[C@H]4C[C@@](O)(C(F)(F)F)CC[C@]4(C)[C@H]3CC[C@]12C)c1ccccc1 [Compound 74] the IC50 was > 500 nM.
Work on C[C@@H](c1ccccc1)N(C)C(=O)[C@H]1CC[C@H]2[C@@H]3CC[C@@H]4C[C@](C)(O)CC[C@@H]4[C@H]3CC[C@]12C [Compound 21] yielded an IC50 of 10 to 50 nM.
CCO[C@H]1C[C@@]2(C)[C@@H](CC[C@@H]3[C@@H]2[C@@H](O)C[C@]2(C)[C@@H]([N+](=O)[O-])CC[C@@H]32)C[C@@H]1O [Compound 122] showed an IC50 of 100 to 500 nM.
C[C@@]1(O)CC[C@H]2[C@@H](CC[C@@H]3[C@@H]2CC[C@@]2(C)[C@H]3CCC2(O)c2ccccc2)C1 (stereo in doubt) [Compound 100] was tested, and the IC50 was > 500 nM.
CCOC[C@@]1(O)CC[C@H]2[C@H](CC[C@@H]3[C@@H]2CC[C@]2(C)[C@@H](C(=O)N4CCc5ccccc5C4)CC[C@@H]32)C1 [Compound 44] gave an IC50 of 50 to 100 nM.
COC[C@]12CC[C@](O)(C(F)(F)F)C[C@H]1CC[C@H]1[C@@H]3CC[C@H](C(=O)N(C)Cc4ccccc4)[C@@]3(C)CC[C@@H]12 [Compound 79] gave an IC50 of 100 to 500 nM.
CO[C@H]1C[C@]2(C)[C@@H]([N+](=O)[O-])CC[C@H]2[C@@H]2CC[C@H]3C[C@H](O)[C@@H](OC)C[C@]3(C)[C@H]21 [Compound 119] was tested, and the IC50 was 10 to 50 nM.
CN(Cc1ccccn1)C(=O)[C@H]1CC[C@H]2[C@@H]3CC[C@@H]4C[C@](C)(O)CC[C@@H]4[C@H]3CC[C@]12C [Compound 22] was tested, and the IC50 was > 500 nM.
With COC[C@]12CC[C@@](C)(O)C[C@H]1CC[C@H]1[C@@H]3CC[C@H](C(=O)CNc4ccccc4)[C@@]3(C)CC[C@@H]12 [Compound 76] the IC50 was < 10 nM.
For C[C@@]1(O)CC[C@@]2(C)[C@@H](CC[C@@H]3[C@@H]2CC[C@]2(C)[C@@H](Nc4cccc(F)c4)CC[C@@H]32)C1 [Compound 90], the IC50 was 100 to 500 nM.
C[C@@]1(O)CC[C@H]2[C@H](CC[C@@H]3[C@@H]2CC[C@]2(C)[C@@H](C(=O)NC4CCOCC4)CC[C@@H]32)C1 [Compound 29] was tested, and the IC50 was > 500 nM.
CN(c1ccccc1)[C@H]1CC[C@H]2[C@@H]3CC[C@H]4C[C@](C)(O)CC[C@]4(C)[C@H]3CC[C@]12C [Compound 88] was tested, and the IC50 was > 500 nM.
For C[C@@]1(O)CC[C@@]2(C)[C@@H](CC[C@@H]3[C@@H]2CC[C@]2(C)[C@@H](NC(=O)c4ccccc4)CC[C@@H]32)C1 [Compound 94], the IC50 was > 500 nM.
In the case of C[C@@]1(O)CC[C@H]2[C@H](CC[C@@H]3[C@@H]2CC[C@]2(C)[C@@H](C4CCOCC4)CC[C@@H]32)C1 [Compound 107], the IC50 is reported as > 500 nM.
Molecule Cc1ccc([C@H]2CC[C@H]3[C@@H]4CC[C@@H]5C[C@](C)(O)CC[C@@H]5[C@H]4CC[C@]23C)cc1 [Compound 102] has an IC50 of 100 to 500 nM.
With CN(CC1CCOCC1)C(=O)[C@H]1CC[C@H]2[C@@H]3CC[C@@H]4C[C@](C)(O)CC[C@@H]4[C@H]3CC[C@]12C [Compound 14] the IC50 was > 500 nM.
With C[C@@H]1CCCCN1C(=O)[C@H]1CC[C@H]2[C@@H]3CC[C@@H]4C[C@](C)(O)CC[C@@H]4[C@H]3CC[C@]12C [Compound 25] the IC50 was 100 to 500 nM.
Molecule CCOC[C@@]1(O)CC[C@H]2[C@H](CC[C@@H]3[C@@H]2CC[C@]2(C)[C@@H](C(=O)N[C@H](C)c4ccc(C#N)cc4)CC[C@@H]32)C1 [Compound 48] has an IC50 of 100 to 500 nM.
CCOC[C@@]1(O)CC[C@H]2[C@@H](CC[C@@H]3[C@@H]2CC[C@]2(C)[C@@H](C(=O)CNc4ccccc4)CC[C@@H]32)C1 [Compound 86] was tested, and the IC50 was 100 to 500 nM.
With CN(Cc1cccnc1)C(=O)[C@H]1CC[C@H]2[C@@H]3CC[C@@H]4C[C@](C)(O)CC[C@@H]4[C@H]3CC[C@]12C [Compound 16] the IC50 was 100 to 500 nM.
In the case of C[C@@]1(O)CC[C@H]2[C@H](CC[C@@H]3[C@@H]2CC[C@]2(C)[C@@H](C(=O)N4CC[C@@H](c5ccccc5)C4)CC[C@@H]32)C1 [Compound 30], the IC50 is reported as 100 to 500 nM.
Work on C[C@@]1(O)CC[C@H]2[C@@H](CC[C@@H]3[C@@H]2CC[C@]2(C)[C@@H](C(=O)CNc4ccccc4)CC[C@@H]32)C1 [Compound 64] yielded an IC50 of 50 to 100 nM.
C[C@@]1(O)CC[C@H]2[C@H](CC[C@@H]3[C@@H]2CC[C@]2(C)[C@@H](C(=O)NCCc4ccccc4)CC[C@@H]32)C1 [Compound 19] gave an IC50 of 100 to 500 nM.
For CN(Cc1ccncc1)C(=O)[C@H]1CC[C@H]2[C@@H]3CC[C@@H]4C[C@](C)(O)CC[C@@H]4[C@H]3CC[C@]12C [Compound 13], the IC50 was 100 to 500 nM.
CN(C(=O)[C@H]1CC[C@H]2[C@@H]3CC[C@@H]4C[C@](C)(O)CC[C@@H]4[C@H]3CC[C@]12C)C1CCOCC1 [Compound 10] showed an IC50 of 100 to 500 nM.
Molecule CCOC[C@]12CC[C@@](C)(O)C[C@@H]1CC[C@H]1[C@@H]3CC[C@H](C(=O)CNc4ccccc4)[C@@]3(C)CC[C@@H]12 [Compound 66] has an IC50 of 50 to 100 nM.
In the case of C[C@@]1(O)CC[C@H]2[C@H](CC[C@@H]3[C@@H]2CC[C@]2(C)[C@@H](C(=O)CNc4ccccc4)CC[C@@H]32)C1 [Compound 38], the IC50 is reported as < 10 nM.
CCOC[C@@]1(O)CC[C@H]2[C@H](CC[C@@H]3[C@@H]2CC[C@]2(C)[C@@H](C(=O)N4CCC[C@@H]4c4ncco4)CC[C@@H]32)C1 [Compound 60] was tested, and the IC50 was > 500 nM.
With C[C@@]1(O)CC[C@H]2[C@H](CC[C@@H]3[C@@H]2CC[C@]2(C)[C@@H](c4cccc(C#N)c4)CC[C@@H]32)C1 [Compound 105] the IC50 was 10 to 50 nM.
In the case of CCOC[C@@]1(O)CC[C@H]2[C@H](CC[C@@H]3[C@@H]2CC[C@]2(C)[C@@H](C(=O)CN(C)c4ccccc4)CC[C@@H]32)C1 [Compound 83], the IC50 is reported as 100 to 500 nM.
C[C@@]1(O)CC[C@H]2[C@H](CC[C@@H]3[C@@H]2CC[C@]2(C)[C@@H](C(=O)Nc4ccc(F)cc4C#N)CC[C@@H]32)C1 [Compound 37] was tested, and the IC50 was 10 to 50 nM.
In the case of C[C@@]1(O)CC[C@H]2[C@H](CC[C@@H]3[C@@H]2CC[C@]2(C)[C@@H](C(=O)NCc4cccnc4)CC[C@@H]32)C1 [Compound 12], the IC50 is reported as > 500 nM.
In the case of C[C@]12CC[C@](O)(C(F)(F)F)C[C@@H]1CC[C@@H]1[C@@H]2CC[C@]2(C)[C@@H](C(=O)CNc3ccccc3)CC[C@@H]12 [Compound 73], the IC50 is reported as 50 to 100 nM.
For C[C@@]1(O)CC[C@@]2(C)[C@@H](CC[C@@H]3[C@@H]2CC[C@]2(C)[C@@H](NCc4ccccc4)CC[C@@H]32)C1 [Compound 92], the IC50 was > 500 nM.
For C[C@@]1(O)CC[C@H]2[C@H](CC[C@@H]3[C@@H]2CC[C@]2(C)[C@@H](c4ccc(C#N)cc4)CC[C@@H]32)C1 [Compound 110], the IC50 was 10 to 50 nM.
For C[C@@]1(O)CC[C@H]2[C@H](CC[C@@H]3[C@@H]2CC[C@]2(C)[C@@H](C(=O)NCc4ccncc4)CC[C@@H]32)C1 [Compound 11], the IC50 was > 500 nM.
C[C@@H](NC(=O)[C@H]1CC[C@H]2[C@@H]3CC[C@@H]4C[C@](C)(O)CC[C@@H]4[C@H]3CC[C@]12C)c1ccccc1 [Compound 20] was tested, and the IC50 was 100 to 500 nM.
CCOC[C@@]1(O)CC[C@H]2[C@H](CC[C@@H]3[C@@H]2CC[C@]2(C)[C@@H](C(=O)N4CCCCC4)CC[C@@H]32)C1 [Compound 50] showed an IC50 of 100 to 500 nM.
With CCOC[C@@]1(O)CC[C@H]2[C@@H](CC[C@@H]3[C@@H]2CC[C@]2(C)[C@@H](C(=O)CN(C)c4ccccc4)CC[C@@H]32)C1 [Compound 85] the IC50 was > 500 nM.
Work on C[C@H]1CCCCN1C(=O)[C@H]1CC[C@H]2[C@@H]3CC[C@@H]4C[C@](C)(O)CC[C@@H]4[C@H]3CC[C@]12C [Compound 28] yielded an IC50 of 100 to 500 nM.
For C[C@@]1(O)CC[C@@]2(C)[C@@H](CC[C@@H]3[C@@H]2CC[C@]2(C)[C@@H](NS(C)(=O)=O)CC[C@@H]32)C1 [Compound 97], the IC50 was > 500 nM.
With CN(CC(=O)[C@H]1CC[C@H]2[C@@H]3CC[C@@H]4C[C@](C)(O)CC[C@@H]4[C@H]3CC[C@]12C)c1cccc(F)c1 [Compound 42] the IC50 was 10 to 50 nM.
C[C@H](NC(=O)[C@H]1CC[C@H]2[C@@H]3CC[C@@H]4C[C@](C)(O)CC[C@@H]4[C@H]3CC[C@]12C)c1ccccc1 [Compound 27] was tested, and the IC50 was 100 to 500 nM.
